According to patent publication US20230242544A1, “QUINAZOLINE COMPOUNDS, PREPARATION METHODS AND USES THEREOF” (INVENTISBIO CO., LTD., priority 2020, published 2023):

Key:
[1] = biological target: Ba/F3_KRAS^G12D cells (Homo sapiens, UniProt P01116, G12D, cells depend on it); experiment: Ba/F3 KRAS G12D cell proliferation assay (CellTiter-Glo); assay type: cell-based; conditions: treated for 3 days, cell-titer Glo, cell growth inhibition, read-out: BaF3_KRAS^G12D IC50
Description: Ba/F3_KRAS^G12D cells (KYinno, China) were generated by transducing Ba/F3 parental cells with the recombinant KRAS^G12D lentivirus and followed by 1 ug/mL of puromycin selection and IL3 depletion. […] Cells were seeded at a density of 5×10^3 per well into 96-well plate and incubated overnight. Serial diluted compounds were added to each well. Cells were treated with the compounds for 3 days, after which cell-titer Glo reagent (Promega #G7572) was used to assess cell proliferation. The luminescence signal was then collected on Tecan Spark plate reader. […] Cell growth inhibition of IC50 is calculated with the equation of Y=Bottom+(Top−Bottom)/(1+10^((Log IC50−X)*Hill Slope))

[2] = biological target: recombinant human KRAS^G12D protein (Homo sapiens, UniProt P01116, G12D); experiment: Temperature-dependent Fluorescence (TdF) KRAS G12D protein binding assay; conditions: 6 μM KRAS^G12D protein, 10 μM compound, Sypro Orange; Kd calculated from the fluorescent shift
Description: The Temperature-dependent Fluorescence (TdF) assay was used to analyze binding affinity of compound to recombinant human KRAS^G12D protein. The TdF assay was conducted in the 96-well-based real-time fluorescence plate reader (ABI 7500 or Roche LightCycler 480). Fluorescent dye Sypro Orange (Sigma) was used to monitor the protein folding-unfolding transition. Protein-compound binding was gauged by the shift in the unfolding transition temperature (ΔTm) acquired with and without compound. Each reaction sample consists of 6 μM KRAS^G12D Protein, 10 μM compound, and Sypro Orange dye (in 1% DMSO) in 20 μL reaction buffer (25 mM HEPES pH 7.5, 150 mM NaCl, 10 mM MgCl2). […] Binding affinity (Kd value) was calculated based on the degree of fluorescent shift of the protein with and without compound.

Chain of Ba/F3_KRAS^G12D cells (P01116 whole entry G12D): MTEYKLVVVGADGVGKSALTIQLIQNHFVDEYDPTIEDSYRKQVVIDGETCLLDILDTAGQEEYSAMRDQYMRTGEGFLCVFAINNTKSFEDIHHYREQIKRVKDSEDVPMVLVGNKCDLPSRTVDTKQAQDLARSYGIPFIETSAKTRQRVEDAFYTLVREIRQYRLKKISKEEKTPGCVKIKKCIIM
Chain of recombinant human KRAS^G12D protein (P01116 1-188 isoform P01116-2 G12D): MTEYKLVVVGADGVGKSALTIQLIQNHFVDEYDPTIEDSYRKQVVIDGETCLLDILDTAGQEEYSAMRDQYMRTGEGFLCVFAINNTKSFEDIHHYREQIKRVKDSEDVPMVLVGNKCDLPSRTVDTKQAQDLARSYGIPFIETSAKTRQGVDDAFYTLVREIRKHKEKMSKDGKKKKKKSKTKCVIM

Structure (SMILES) | GI50 [1] | Kd [2]
CN1CCC[C@H]1COc1nc(N2CC3CCC(C2)N3)c2cc(Cl)c(-c3c(O)cccc3F)c(F)c2n1 [Compound 4] | > 5 µM | 0.5 to 5 µM
CNC1CCN(c2nc(OC[C@@H]3CCCN3C)nc3c(F)c(-c4cc(O)cc5cccc(Cl)c45)c(Cl)cc23)C1 (some centres unmarked) [Compound 16] | 0.5 to 5 µM | > 5 µM
C[C@@H]1CN(c2nc(OC[C@@H]3CCCN3C)nc3c(F)c(-c4cc(O)cc5cccc(Cl)c45)c(Cl)cc23)[C@@H](C)CN1 [Compound 21] | 0.5 to 5 µM | > 5 µM
Oc1cc(-c2c(Cl)cc3c(N4CC5CCC(C4)N5)nc(OCC45CCCN4CCC5)nc3c2F)c2c(Cl)cccc2c1 [Compound 61] | 0.5 to 5 µM | < 0.5 µM
CN(C)C1CCN(c2nc(N3CC4CCC(C3)N4)c3cc(Cl)c(-c4cc(O)cc5ccccc45)c(F)c3n2)CC1 [Compound 54] | 0.5 to 5 µM | > 5 µM
Nc1cccc(F)c1-c1c(Cl)cc2c(N3CCNCC3)nc(OCC34CCCN3CCC4)nc2c1F [Compound 14] | > 5 µM | > 5 µM
CN1CCOCC1COc1nc(N2CC3CCC(C2)N3)c2cc(Cl)c(-c3cc(O)cc4ccccc34)c(F)c2n1 (centres unmarked) [Compound 57] | 0.5 to 5 µM | > 5 µM
C[C@H]1CNCCN1c1nc(OC[C@@H]2CCCN2C)nc2c(F)c(-c3cc(O)cc4ccccc34)c(Cl)cc12 [Compound 3] | 0.5 to 5 µM | > 5 µM
CC(C)N1CC(Nc2nc(N3C[C@@H](C)NC[C@@H]3C)c3cc(Cl)c(-c4cc(O)cc5ccccc45)c(F)c3n2)C1 [Compound 49] | > 5 µM | > 5 µM
CN1CCC[C@H]1COc1nc(N2CC3(CCNC3)C2)c2cc(Cl)c(-c3cc(O)cc4cccc(Cl)c34)c(F)c2n1 [Compound 19] | > 5 µM | > 5 µM
CN1CC(F)(F)CC1COc1nc(N2CC3CCC(C2)N3)c2cc(Cl)c(-c3cc(O)cc4cccc(Cl)c34)c(F)c2n1 (centres unmarked) [Compound 35] | 0.5 to 5 µM | 0.5 to 5 µM
CN1CCC2CCN(c3nc(N4CC5CCC(C4)N5)c4cc(Cl)c(-c5cc(O)cc6ccccc56)c(F)c4n3)CC21 (centres unmarked) [Compound 42] | 0.5 to 5 µM | > 5 µM
CN(C)CCCOc1nc(N2CC3CCC(C2)N3)c2cc(Cl)c(-c3cc(O)cc4ccccc34)c(F)c2n1 [Compound 5] | 0.5 to 5 µM | 0.5 to 5 µM
CN1CCC2(CC1)CCN(c1nc(N3CC4CCC(C3)N4)c3cc(Cl)c(-c4cc(O)cc5ccccc45)c(F)c3n1)C2 [Compound 41] | 0.5 to 5 µM | > 5 µM
CN1CCC[C@H]1COc1nc(N2C[C@H]3NCC[C@H]32)c2cc(Cl)c(-c3cc(O)cc4cccc(Cl)c34)c(F)c2n1 [Compound 25] | 0.5 to 5 µM | > 5 µM
Cc1cccc2cc(O)cc(-c3c(Cl)cc4c(N5CC6CCC(C5)N6)nc(OC[C@@]56CCCN5C[C@H](F)C6)nc4c3F)c12 [Compound 47] | < 0.5 µM | < 0.5 µM
CN1CCC[C@H]1COc1nc(N2CC3CCCC(C2)N3)c2cc(Cl)c(-c3cc(O)cc4cccc(Cl)c34)c(F)c2n1 [Compound 11] | 0.5 to 5 µM | 0.5 to 5 µM
CN1CCC[C@H]1COc1nc(N2CCNCC23CC3)c2cc(Cl)c(-c3cc(O)cc4cccc(Cl)c34)c(F)c2n1 [Compound 23] | 0.5 to 5 µM | 0.5 to 5 µM
CN(C)C1CN(c2nc(N3CC4CCC(C3)N4)c3cc(Cl)c(-c4cc(O)cc5ccccc45)c(F)c3n2)C1 [Compound 39] | 0.5 to 5 µM | > 5 µM
C[C@@H]1CN(c2nc(OCC3CN(C)C3)nc3c(F)c(-c4cc(O)cc5ccccc45)c(Cl)cc23)[C@@H](C)CN1 [Compound 36] | 0.5 to 5 µM | > 5 µM
CN1CCC[C@H]1COc1nc(N2CC3(CNC3)C2)c2cc(Cl)c(-c3cc(O)cc4cccc(Cl)c34)c(F)c2n1 [Compound 17] | > 5 µM | > 5 µM

Results, then the molecule that gave them:

GI50 [1] | Kd [2] | Structure (SMILES)
> 5 µM | < 0.5 µM | CN1C[C@H](O)C[C@H]1COc1nc(N2CC3CCC(C2)N3)c2cc(Cl)c(-c3cc(O)cc4ccccc34)c(F)c2n1 [Compound 80]
0.5 to 5 µM | > 5 µM | N#Cc1cc2c(N3CC4CCC(C3)N4)nc(OC[C@@]34CCCN3C[C@H](F)C4)nc2c(F)c1-c1cc(O)cc2cccc(Cl)c12 (single isomer, unassigned) [Compound 119]
0.5 to 5 µM | > 5 µM | Oc1cc(-c2c(Cl)cc3c(N4CC5CCC(C4)N5)nc(OC[C@@]45CCCN4C[C@H](F)C5)nc3c2F)c2c(Cl)cccc2c1 (single isomer, unassigned) [Compound 104]
0.5 to 5 µM | > 5 µM | Cc1cc(-c2c(Cl)cc3c(N4CC5CCC(C4)N5)nc(OC[C@@H]4CCCN4C)nc3c2F)cc2[nH]ncc12 [Compound 109]
< 0.5 µM | < 0.5 µM | N#Cc1cc2c(N3CC4CCC(C3)N4)nc(OC[C@@]34CCCN3C[C@H](F)C4)nc2c(F)c1-c1cc(O)cc2ccc(F)c(Cl)c12 [Compound 129]
> 5 µM | > 5 µM | Cc1cc(N)nc(-c2c(Cl)cc3c(N4CCN[C@@H](CC#N)C4)nc(OC[C@@H]4C[C@@H](F)CN4C)nc3c2F)c1C(F)(F)F [Compound 135]
0.5 to 5 µM | > 5 µM | Oc1cc(-c2c(Cl)cc3c(N4CC5CCC(C4)N5)nc(OC[C@]45CCCN4C[C@@H](F)C5)nc3c2F)c2c(Cl)cccc2c1 (single isomer, unassigned) [Compound 102]
< 0.5 µM | < 0.5 µM | Cc1ccc2[nH]ncc2c1-c1c(C#N)cc2c(N3CC4CCC(C3)N4)nc(OC[C@@]34CCCN3C[C@H](F)C4)nc2c1F [Compound 92]
0.5 to 5 µM | > 5 µM | Oc1cc(-c2c(Cl)cc3c(N4CC5CCC(C4)N5)nc(OC[C@]45CCCN4C[C@@H](F)C5)nc3c2F)c2ccccc2c1 (single isomer, unassigned) [Compound 105]
< 0.5 µM | < 0.5 µM | Oc1cc(-c2c(Cl)cc3c(N4CC5CCC(C4)N5)nc(OC[C@]45CCCN4C[C@@H](F)C5)nc3c2F)c2c(Cl)cccc2c1 (single isomer, unassigned) [Compound 101]
< 0.5 µM | 0.5 to 5 µM | Fc1c(-c2cccc3cccc(Cl)c23)c(Cl)cc2c(N3CC4CCC(C3)N4)nc(OCC34CCCN3CCC4)nc12 [Compound 64]
< 0.5 µM | < 0.5 µM | Cc1cccc2cc(O)cc(-c3c(Cl)cc4c(N5CC6CCC(C5)N6)nc(OC[C@@]56CCCN5C[C@H](F)C6)nc4c3F)c12 (single isomer, unassigned) [Compound 118]
< 0.5 µM | < 0.5 µM | Oc1cc(-c2c(Cl)cc3c(N4CC5CCC(C4)N5)nc(OCC45CCCN4CCC5)nc3c2F)c2ccccc2c1 [Compound 85]
0.5 to 5 µM | < 0.5 µM | Nc1nc2c(-c3c(Cl)cc4c(N5CC6CCC(C5)N6)nc(OC[C@@]56CCCN5C[C@H](F)C6)nc4c3F)cc(C(F)(F)F)cc2s1 [Compound 132]
0.5 to 5 µM | < 0.5 µM | Cc1cc(F)c2sc(N)nc2c1-c1c(Cl)cc2c(N3CC4CCC(C3)N4)nc(OC[C@@]34CCCN3C[C@H](F)C4)nc2c1F [Compound 100]
0.5 to 5 µM | 0.5 to 5 µM | Cc1cccc2cccc(-c3c(C#N)cc4c(N5CC6CCC(C5)N6)nc(OC[C@@]56CCCN5C[C@H](F)C6)nc4c3F)c12 [Compound 87]
0.5 to 5 µM | 0.5 to 5 µM | C[C@H]1CNCCN1c1nc(OC[C@@]23CCCN2C[C@H](F)C3)nc2c(F)c(-c3cc(O)cc4ccccc34)c(Cl)cc12 [Compound 127]
0.5 to 5 µM | > 5 µM | Oc1cc(-c2c(Cl)cc3c(N4CC5CCC(C4)N5)nc(OC[C@@]45CCCN4C[C@H](F)C5)nc3c2F)c2ccccc2c1 (single isomer, unassigned) [Compound 108]
> 5 µM | 0.5 to 5 µM | Oc1cccc(F)c1-c1c(Cl)cc2c(N3C4CCC3CNC4)nc(OCC34CCCN3CCC4)nc2c1F [Compound 67]
< 0.5 µM | < 0.5 µM | CCc1cccc2cc(O)cc(-c3c(Cl)cc4c(N5CC6CCC(C5)N6)nc(OC[C@@]56CCCN5C[C@H](F)C6)nc4c3F)c12 (single isomer, unassigned) [Compound 133]
0.5 to 5 µM | < 0.5 µM | Oc1cc(-c2c(Cl)cc3c(N4CC5CCC(C4)N5)nc(OCC45CCCN4CC(F)(F)C5)nc3c2F)c2c(Cl)cccc2c1 (centres unmarked) [Compound 65]
> 5 µM | > 5 µM | Cc1cc(N)nc(-c2c(Cl)cc3c(N4CC5CCC(C4)N5)nc(OC[C@@H]4CCCN4C)nc3c2F)c1 [Compound 130]
0.5 to 5 µM | > 5 µM | N#Cc1cc2c(N3CC4CCC(C3)N4)nc(OC[C@@]34CCCN3C[C@H](F)C4)nc2c(F)c1-c1c(N)cccc1F [Compound 91]
< 0.5 µM | < 0.5 µM | Cc1cccc2cc(O)cc(-c3c(Cl)cc4c(N5CC6CCC(C5)N6)nc(OC[C@@]56CCCN5C[C@H](F)C6)nc4c3F)c12 (single isomer, unassigned) [Compound 117]
0.5 to 5 µM | < 0.5 µM | CN1CCC1COc1nc(N2CC3CCC(C2)N3)c2cc(Cl)c(-c3cc(O)cc4ccccc34)c(F)c2n1 (centres unmarked) [Compound 79]
